Measured values reported in the supplement of paper PMC4862054.

Key:
Assay in all cases: normalised viability (% of control), CellTiter-Blue; higher = more viable cells (about 100 = DMSO control)
Conditions in all cases: incubation time: 72 h
[1] = tested on: BT-549
Experimental: (§1)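 DSRT, CellTiter-Blue viability, 72 h incubation. Signal is normalised to DMSO and benzethonium chloride controls. Value is the normalised response at dose 3.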

[2] = tested on: CAL-85-1
Experimental: as §1

[3] = tested on: Hs578T
Experimental: as §1

[4] = tested on: MFM-223
Experimental: as §1

[5] = tested on: DU-4475
Experimental: as §1

[6] = tested on: HCC1143
Experimental: as §1

[7] = tested on: MDA-MB-453
Experimental: as §1

[8] = tested on: CAL-51
Experimental: as §1

[9] = tested on: HCC1599
Experimental: as §1

[10] = tested on: MDA-MB-231
Experimental: as §1

[11] = tested on: HDQ-P1
Experimental: as §1

[12] = tested on: MDA-MB-468
Experimental: as §1

[13] = tested on: CAL-120
Experimental: as §1

[14] = tested on: BT-474
Experimental: as §1

[15] = tested on: MDA-MB-436
Experimental: as §1

[16] = tested on: CAL-148
Experimental: as §1

[17] = tested on: SK-BR-3
Experimental: as §1

[18] = tested on: HCC1937
Experimental: as §1

[19] = tested on: Hs578T; remark: listed apart in the source
In short: (§2)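 Normalised viability is given for a single listed concentration of the series. In 384-well plates, breast cancer cell lines were incubated 72 h with compound, then read with CellTiter-Blue (2 h, 37 °C) at 560/590 nm. Per-plate scaling set vehicle to 100 and a positive kill control to 0, with Z'-factor quality control.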

[20] = tested on: MFM-223; remark: listed apart in the source
In short: as §2

[21] = tested on: DU-4475; remark: listed apart in the source
In short: as §2

[22] = tested on: MDA-MB-453; remark: listed apart in the source
In short: as §2

[23] = tested on: CAL-51; remark: listed apart in the source
In short: as §2

[24] = tested on: HDQ-P1; remark: listed apart in the source
In short: as §2

[25] = tested on: MDA-MB-468; remark: listed apart in the source
In short: as §2

[26] = tested on: CAL-120; remark: listed apart in the source
In short: as §2

[27] = tested on: BT-474; remark: listed apart in the source
In short: as §2

[28] = tested on: CAL-148; remark: listed apart in the source
In short: as §2

[29] = tested on: SK-BR-3; remark: listed apart in the source
In short: as §2

[30] = tested on: HCC1937; remark: listed apart in the source
In short: as §2

CCC1=C[C@@H]2CN(C1)Cc1c([nH]c3ccccc13)[C@@](C(=O)OC)(c1cc3c(cc1OC)N(C)[C@H]1[C@@](O)(C(=O)OC)[C@H](OC(C)=O)[C@]4(CC)C=CCN5CC[C@]31[C@@H]54)C2 [Vinorelbine]
Conditions	normalised viability [%]
[1], 100 nM	23.4
[2], 10 nM	91.3
[3], 100 nM	28.7
[4], 100 nM	49.1
[5], 10 nM	107
[6], 100 nM	54.4
[7], 10 nM	61.1
[8], 10 nM	99.9
[9], 100 nM	90.4
[10], 100 nM	37.2
[11], 10 nM	99.6
[12], 100 nM	39.9
[13], 100 nM	30.6
[14], 100 nM	43.6
[15], 100 nM	56.8
[16], 10 nM	105
[17], 100 nM	15.7
[18], 100 nM	28
[19], 10 nM	93.7
[19], 1000 nM	16.1
[19], 10000 nM	15.9
[20], 10 nM	95.5
[20], 1000 nM	44
[20], 10000 nM	29.1
[21], 3 nM	96.7
[21], 30 nM	91.3
[21], 100 nM	79.4
[22], 3 nM	110
[22], 30 nM	43
[22], 100 nM	25.1
[23], 3 nM	110
[23], 30 nM	91.7
[23], 100 nM	58.1
[24], 3 nM	95.3
[24], 30 nM	81.2
[24], 100 nM	65
[25], 10 nM	104
[25], 1000 nM	53.6
[25], 10000 nM	33.8
[26], 10 nM	84.1
[26], 1000 nM	24.3
[26], 10000 nM	25.4
[27], 10 nM	108
[27], 1000 nM	44.4
[27], 10000 nM	58.1
[28], 3 nM	106
[28], 30 nM	91.4
[28], 100 nM	18.7
[29], 10 nM	99.4
[29], 1000 nM	17.7
[29], 10000 nM	18.3
[30], 10 nM	83.2
[30], 1000 nM	14.7
[30], 10000 nM	19.5

COc1cc2nccc(Oc3ccc(NC(=O)C4(C(=O)Nc5ccc(F)cc5)CC4)cc3)c2cc1OC [Cabozantinib]
Conditions	normalised viability [%]
[1], 10 nM	104
[2], 1 nM	91.8
[3], 10 nM	91.1
[4], 10 nM	93.5
[5], 1 nM	89.4
[6], 10 nM	81.3
[7], 1 nM	98.5
[8], 1 nM	96.9
[9], 10 nM	82.3
[10], 10 nM	100
[11], 1 nM	99.5
[12], 10 nM	123
[13], 10 nM	80.7
[14], 10 nM	122
[15], 10 nM	108
[16], 1 nM	98.6
[17], 10 nM	76.2
[18], 10 nM	95.4
[19], 1 nM	128
[19], 100 nM	102
[19], 1000 nM	111
[20], 1 nM	88.5
[20], 100 nM	84
[20], 1000 nM	53.7
[21], 0.3 nM	90.4
[21], 3 nM	78
[21], 10 nM	88.4
[22], 0.3 nM	111
[22], 3 nM	96.9
[22], 10 nM	108
[23], 0.3 nM	109
[23], 3 nM	106
[23], 10 nM	97.8
[24], 0.3 nM	97.7
[24], 3 nM	93.7
[24], 10 nM	112
[25], 1 nM	110
[25], 100 nM	106
[25], 1000 nM	101
[26], 1 nM	85.5
[26], 100 nM	77.8
[26], 1000 nM	86.5
[27], 1 nM	125
[27], 100 nM	119
[27], 1000 nM	127
[28], 0.3 nM	94.5
[28], 3 nM	103
[28], 10 nM	94.2
[29], 1 nM	115
[29], 100 nM	110
[29], 1000 nM	109
[30], 1 nM	98
[30], 100 nM	87.5
[30], 1000 nM	100

CN(N=O)C(=O)N[C@@H](C=O)[C@@H](O)[C@H](O)[C@H](O)CO [Streptozocin]
Conditions	normalised viability [%]
[1], 100 nM	104
[2], 10 nM	105
[3], 100 nM	102
[4], 100 nM	90.6
[5], 10 nM	99.1
[6], 100 nM	101
[7], 10 nM	112
[8], 10 nM	109
[9], 100 nM	101
[10], 100 nM	101
[11], 10 nM	106
[12], 100 nM	106
[13], 100 nM	105
[14], 100 nM	104
[15], 100 nM	101
[16], 10 nM	99.6
[17], 100 nM	95.7
[18], 100 nM	90.7
[19], 10 nM	110
[19], 1000 nM	103
[19], 10000 nM	101
[20], 10 nM	93.1
[20], 1000 nM	93
[20], 10000 nM	86.8
[21], 3 nM	101
[21], 30 nM	96.5
[21], 100 nM	103
[22], 3 nM	116
[22], 30 nM	89.4
[22], 100 nM	93
[23], 3 nM	115
[23], 30 nM	112
[23], 100 nM	107
[24], 3 nM	103
[24], 30 nM	109
[24], 100 nM	111
[25], 10 nM	107
[25], 1000 nM	105
[25], 10000 nM	113
[26], 10 nM	106
[26], 1000 nM	101
[26], 10000 nM	113
[27], 10 nM	125
[27], 1000 nM	98.6
[27], 10000 nM	135
[28], 3 nM	98.6
[28], 30 nM	97.3
[28], 100 nM	99.3
[29], 10 nM	101
[29], 1000 nM	110
[29], 10000 nM	126
[30], 10 nM	87.4
[30], 1000 nM	63.3
[30], 10000 nM	75.9
